Where “and” joins values, the source holds several entries; their conditions need not be identical. Identical values can stand only once.
Legend:
telomerase = telomerase (Homo sapiens (Human), UniProt O14746); experiment: Primer extension assay for telomerase activity; format: biochemical; conditions: for EC50: read-out: Primer Ext. Assay EC50
Procedure: Purified human telomerase was incubated with d(TTAGGG)3 (SEQ ID NO: 1) and deoxy-nucleoside triphosphates for 90 minutes at 37° C. All reactions were done in the presence of 200 dTTP and 10 μM dATP (50,000 cpm/pmol a-^33P-dATP). Activity was determined by incubating affinity purified telomerase extract with 1 μM primer [d(TTAGGG)3] (SEQ ID NO: 1), 200 μM dTTP, 50 μM dGTP, 10 μM dATP, 10 μCi [α-^33P]dATP (2000-4000 Ci/mmol) in a buffer containing 50 mM (N-2-hydroxyethyl piperazine-N′-3 propanesulfonic acid)-NaOH pH 8.5, 1 mM MgCl2, 1 mM DTT, 5% glycerol, 0.5 mM EGTA and 100 mM KOAc in a final reaction volume of 40 μl. Primer extension products were analyzed on a 15% polyacrylamide gel containing 7 M urea. A characteristic telomerase ladder has multiple bands. If a compound is not a substrate then (TTAGGG)3TTA (21 nt) (SEQ ID NO: 2). If a compound is a chain terminator then (TTAGGG)3TTAG* (22 nt) (SEQ ID NO: 3).
Purified human telomerase was incubated with d(TTAGGG)3 (SEQ ID NO: 1) and deoxy-nucleoside triphosphates for 90 minutes at 37° C. All reactions were done in the presence of 200 dTTP and 10 μM dATP (50,000 cpm/pmol a-^33P-dATP). Activity was determined by incubating affinity purified telomerase extract with […] primer [d(TTAGGG)3] (SEQ ID NO: 1), […] [α-^33P]dATP (2000-4000 Ci/mmol) in a buffer containing 50 mM (N-2-hydroxyethyl piperazine-N′-3 propanesulfonic acid)-NaOH pH 8.5, 1 mM MgCl2, 1 mM DTT, 5% glycerol, 0.5 mM EGTA and 100 mM KOAc in a final reaction volume of 40 μl. Primer extension products were analyzed on a 15% polyacrylamide gel containing 7 M urea. A characteristic telomerase ladder has multiple bands. If a compound is not a substrate then (TTAGGG)3TTA (21 nt) (SEQ ID NO: 2). If a compound is a chain terminator then (TTAGGG)3TTAG* (22 nt) (SEQ ID NO: 3).

telomerase in HT3 cells = telomerase in HT3 cells (Homo sapiens (Human), UniProt O14746); experiment: Ex vivo TRAP assay in HT3 cells; format: cell-based; conditions: HT3 cells; for EC50: 3 days, read-out: ExVivo TRAP EC50 (μM)- 3 Day Assay
Procedure: HT3 cells were treated for three days with increasing concentrations of PMPG-diisopropyloxy ester ranging from 0.2 μM to 20 μM. Cells (HT3 RPMI+10% PBS) were incubated with compound for 24 hr after which PSTS primer (phosphorothioate-d(AATCCGTCGAGCAGAGTT (SEQ ID NO: 6) containing a 5′ Cy-5 label) (7.5 μM) and fresh compound are added for an additional 24 hr. Cells were lysed and endogenous telomerase inactivated by heating (15 min, 75° C.). Products were amplified by 30 cycles of PCR under TRAP conditions set forth above and quantified. The results of two independent experiments are shown in Table 4.
HT3 cells were treated for three days with increasing concentrations of one or more of the indicated compounds ranging from 0.2 μM to 20 μM. Cells (HT3 RPMI+10% FBS) were incubated with compound for 24 hours, after which PSTS primer (phosphorothioate-d AATCCGTCGAGCAGAGTT (SEQ ID NO: 6) containing a 5′ Cy-5 label) (7.5 μM) and fresh compound were added for an additional 24 hours. Cells were lysed and endogenous telomerase inactivated by heating (15 minutes, 75° C.). Products were amplified by 30 cycles of PCR under TRAP conditions set forth in Kim et al., Science 266:2011, […] (which reference is incorporated herein in its entirety) and quantified.

Sequence of telomerase (O14746 whole entry): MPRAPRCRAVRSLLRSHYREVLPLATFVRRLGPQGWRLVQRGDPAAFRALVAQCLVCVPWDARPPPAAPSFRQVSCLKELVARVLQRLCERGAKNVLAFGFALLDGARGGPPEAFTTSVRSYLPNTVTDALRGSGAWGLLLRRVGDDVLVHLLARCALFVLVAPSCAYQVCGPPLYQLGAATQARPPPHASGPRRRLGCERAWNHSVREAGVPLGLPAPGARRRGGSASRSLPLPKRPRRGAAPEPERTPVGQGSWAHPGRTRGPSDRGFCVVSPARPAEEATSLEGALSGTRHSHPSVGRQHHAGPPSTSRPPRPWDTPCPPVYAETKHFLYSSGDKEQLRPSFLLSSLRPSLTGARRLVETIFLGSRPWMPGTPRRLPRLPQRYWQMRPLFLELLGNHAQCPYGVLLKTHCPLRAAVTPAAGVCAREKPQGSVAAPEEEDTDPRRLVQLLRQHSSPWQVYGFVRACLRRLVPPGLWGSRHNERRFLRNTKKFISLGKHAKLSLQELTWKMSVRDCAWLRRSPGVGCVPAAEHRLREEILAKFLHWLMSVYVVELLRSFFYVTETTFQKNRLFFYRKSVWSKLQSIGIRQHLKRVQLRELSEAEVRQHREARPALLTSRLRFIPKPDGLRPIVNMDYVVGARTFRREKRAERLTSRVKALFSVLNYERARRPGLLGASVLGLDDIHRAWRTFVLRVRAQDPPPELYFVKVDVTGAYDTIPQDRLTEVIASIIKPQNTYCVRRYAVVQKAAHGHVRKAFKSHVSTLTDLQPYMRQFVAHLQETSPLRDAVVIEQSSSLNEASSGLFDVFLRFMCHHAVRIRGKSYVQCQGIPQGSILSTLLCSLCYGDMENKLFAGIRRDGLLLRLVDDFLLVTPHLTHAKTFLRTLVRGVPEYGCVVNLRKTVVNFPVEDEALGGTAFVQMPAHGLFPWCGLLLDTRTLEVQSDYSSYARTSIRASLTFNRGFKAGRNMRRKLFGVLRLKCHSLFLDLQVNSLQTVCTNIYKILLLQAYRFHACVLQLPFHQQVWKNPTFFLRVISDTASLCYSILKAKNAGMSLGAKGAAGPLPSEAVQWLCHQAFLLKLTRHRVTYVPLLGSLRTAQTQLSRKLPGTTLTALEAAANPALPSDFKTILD
Sequence of telomerase in HT3 cells (O14746 whole entry): as above
Sequence of telomerase in HT3 cells (O60832 whole entry partner): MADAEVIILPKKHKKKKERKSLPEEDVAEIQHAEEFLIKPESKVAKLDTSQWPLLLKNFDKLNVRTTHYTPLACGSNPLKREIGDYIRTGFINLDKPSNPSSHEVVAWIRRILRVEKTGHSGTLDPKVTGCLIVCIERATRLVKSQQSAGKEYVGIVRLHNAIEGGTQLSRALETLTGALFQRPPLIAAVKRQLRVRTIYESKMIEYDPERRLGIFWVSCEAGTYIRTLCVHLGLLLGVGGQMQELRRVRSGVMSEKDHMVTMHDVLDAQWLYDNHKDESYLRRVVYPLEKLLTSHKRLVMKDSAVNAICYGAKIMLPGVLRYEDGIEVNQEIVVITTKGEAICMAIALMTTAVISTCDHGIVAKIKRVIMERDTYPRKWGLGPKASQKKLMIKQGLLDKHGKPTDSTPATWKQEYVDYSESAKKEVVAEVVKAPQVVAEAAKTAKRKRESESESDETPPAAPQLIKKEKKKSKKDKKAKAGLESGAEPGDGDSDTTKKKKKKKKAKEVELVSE
Sequence of telomerase in HT3 cells (Q9NX24 whole entry partner): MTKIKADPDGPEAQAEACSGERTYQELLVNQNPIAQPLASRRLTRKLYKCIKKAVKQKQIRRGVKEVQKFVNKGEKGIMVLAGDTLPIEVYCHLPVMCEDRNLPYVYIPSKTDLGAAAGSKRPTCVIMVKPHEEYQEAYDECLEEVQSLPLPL
Sequence of telomerase in HT3 cells (Q9NPE3 whole entry partner): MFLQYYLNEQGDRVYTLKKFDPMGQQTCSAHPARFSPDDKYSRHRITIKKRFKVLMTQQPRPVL
Sequence of telomerase in HT3 cells (Q9NY12 whole entry partner): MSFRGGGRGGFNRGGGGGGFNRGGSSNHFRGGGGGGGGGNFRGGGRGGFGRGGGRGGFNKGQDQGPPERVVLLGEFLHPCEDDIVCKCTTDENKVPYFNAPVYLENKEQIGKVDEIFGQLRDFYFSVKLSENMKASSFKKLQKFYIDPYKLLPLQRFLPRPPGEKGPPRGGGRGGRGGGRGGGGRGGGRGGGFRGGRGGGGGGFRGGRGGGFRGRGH
Sequence of telomerase in HT3 cells (Q9BUR4 whole entry partner): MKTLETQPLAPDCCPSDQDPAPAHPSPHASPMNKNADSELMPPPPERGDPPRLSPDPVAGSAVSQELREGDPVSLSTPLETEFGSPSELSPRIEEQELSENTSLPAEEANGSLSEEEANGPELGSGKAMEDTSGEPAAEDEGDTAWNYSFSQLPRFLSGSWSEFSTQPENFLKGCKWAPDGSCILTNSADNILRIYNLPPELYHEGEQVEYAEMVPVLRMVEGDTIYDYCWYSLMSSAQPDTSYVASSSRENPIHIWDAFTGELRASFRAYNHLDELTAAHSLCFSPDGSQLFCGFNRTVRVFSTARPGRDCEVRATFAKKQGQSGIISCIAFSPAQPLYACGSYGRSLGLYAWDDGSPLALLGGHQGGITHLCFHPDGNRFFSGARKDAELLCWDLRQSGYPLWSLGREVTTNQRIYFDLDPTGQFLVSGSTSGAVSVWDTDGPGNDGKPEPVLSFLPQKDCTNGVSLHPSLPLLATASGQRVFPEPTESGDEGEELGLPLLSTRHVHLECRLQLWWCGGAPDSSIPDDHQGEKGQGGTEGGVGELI

CC(Cn1cnc2c(=O)[nH]c(N)nc21)OCP(=O)(O)OP(=O)(O)OP(=O)(O)O (single isomer, unassigned) [Compound 142692]
Primer Ext. Assay Notes: telomerase substrate / chain terminator (telomerase): Chain terminator.
EC50 (telomerase): 0.5 to 1.2 µM

CC(C)OC(=O)OCOP(=O)(COC(C)Cn1cnc2c(=O)[nH]c(N)nc21)OCOC(=O)OC(C)C (single isomer, unassigned) [ID#142748, PMPG prodrug, S form]
IC50 (telomerase in HT3 cells; 0.2 μM to 20 μM, two independent experiments, read-out: Ex vivo Assay IC 50): > 20 µM

CC(Cn1cnc2c(=O)[nH]c(N)nc21)OCP(=O)(O)O (single isomer, unassigned) [compound 142693]
EC50 (telomerase in HT3 cells): 11.7 µM

CC(C)OC(=O)OCOP(=O)(COC(C)Cn1cnc2c(=O)[nH]c(N)nc21)OCOC(=O)OC(C)C (single isomer, unassigned) [compound 142715]
EC50 (telomerase in HT3 cells): 1.2 µM and 3.1 µM

C[C@@H](COCP(=O)(O)OP(=O)(O)OP(=O)(O)O)Cn1cnc2c(=O)[nH]c(N)nc21 (stereo in doubt) [Compound 142860]
Primer Ext. Assay Notes: telomerase substrate / chain terminator (telomerase): Weak chain terminator.

CC(Cn1cnc2c(=O)[nH]c(N)nc21)OCP(=O)(O)OP(=O)(O)OP(=O)(O)O (stereo not drawn) [Compound 142751]
Primer Ext. Assay Notes: telomerase substrate / chain terminator (telomerase): Weak chain terminator.

CC(Cn1cnc2c(=S)[nH]c(N)nc21)OCP(=O)(O)OP(=O)(O)OP(=O)(O)O (stereo not drawn) [Compound 142752]
Primer Ext. Assay Notes: telomerase substrate / chain terminator (telomerase): Weak chain terminator.

CC(Cn1cnc2c(=S)[nH]c(N)nc21)OCP(=O)(O)OP(=O)(O)OP(=O)(O)O (stereo not drawn) [Compound 142761]
Primer Ext. Assay Notes: telomerase substrate / chain terminator (telomerase): Chain terminator
EC50 (telomerase): 13.5 µM

C=C(COCP(=O)(O)OP(=O)(O)OP(=O)(O)O)Cn1cnc2c(=O)[nH]c(N)nc21 [Compound 142810]
Primer Ext. Assay Notes: telomerase substrate / chain terminator (telomerase): Chain Terminator.
EC50 (telomerase): 1.4 µM

C[C@H](Cn1cnc2c(=O)[nH]c(N)nc21)SCP(=O)(O)OP(=O)(O)OP(=O)(O)O [Compound 142823]
Primer Ext. Assay Notes: telomerase substrate / chain terminator (telomerase): Weak chain terminator.

CC(COCP(=O)(O)OP(=O)(O)OP(=O)(O)O)Cn1cnc2c(=O)[nH]c(N)nc21 (stereo not drawn) [Compound 142846]
Primer Ext. Assay Notes: telomerase substrate / chain terminator (telomerase): Chain terminator.
EC50 (telomerase): 4.4 µM

Nc1nc2c(ncn2CCCOCP(=O)(O)OP(=O)(O)OP(=O)(O)O)c(=O)[nH]1 [Compound 142848]
Primer Ext. Assay Notes: telomerase substrate / chain terminator (telomerase): Chain terminator
potency relative to PMPG (R-PMPGpp), times less potent (telomerase): ~2
EC50 (telomerase): 1.5 µM

Nc1nc2c(ncn2CC(OCP(=O)(O)OP(=O)(O)OP(=O)(O)O)C(F)(F)F)c(=O)[nH]1 (stereo not drawn) [Compound 142850]
Primer Ext. Assay Notes: telomerase substrate / chain terminator (telomerase): Weak chain terminator.

Nc1nc2c(ncn2CC(CF)OCP(=O)(O)OP(=O)(O)OP(=O)(O)O)c(=O)[nH]1 (stereo not drawn) [Compound 142856]
Primer Ext. Assay Notes: telomerase substrate / chain terminator (telomerase): Chain terminator.
EC50 (telomerase): 7.5 µM

CC(COCP(=O)(O)OP(=O)(O)OP(=O)(O)O)n1cnc2c(=O)[nH]c(N)nc21 (stereo not drawn) [Compound 142879]
Primer Ext. Assay Notes: telomerase substrate / chain terminator (telomerase): Chain terminator.
EC50 (telomerase): 3.1 µM

CC(C)(Cn1cnc2c(=O)[nH]c(N)nc21)OCP(=O)(O)OP(=O)(O)OP(=O)(O)O [Compound 142891]
Primer Ext. Assay Notes: telomerase substrate / chain terminator (telomerase): Weak chain terminator.

C[C@H](CCn1cnc2c(=O)[nH]c(N)nc21)OCP(=O)(O)OP(=O)(O)OP(=O)(O)O [Compound 142915]
EC50 (telomerase): > 60 µM

CC[C@H](Cn1cnc2c(=O)[nH]c(N)nc21)OCP(=O)(O)OP(=O)(O)OP(=O)(O)O [Compound 142916]
EC50 (telomerase): 10 µM

C=C(COCP(=O)(O)OP(=O)(O)OP(=O)(O)O)Cn1cnc2c(=O)[nH]c(N)nc21 [ID#142810, PMIBeG, free acid]
potency relative to PMPG (R-PMPGpp), times less potent (telomerase): approximately two times less potent than R-PMPGpp

CC(Cn1cnc2c(=S)[nH]c(N)nc21)OCP(=O)(O)O (stereo not drawn) [compound 142694]
EC50 (telomerase in HT3 cells): 7.54 µM

C=C(COCP(=O)(O)O)Cn1cnc2c(=O)[nH]c(N)nc21 [compound 142811]
EC50 (telomerase in HT3 cells): 2.6 µM

CC(Cn1cnc2c(=O)[nH]c(N)nc21)OCP(=O)(O)NCCCNCCCCN (stereo not drawn) [compound 142812]
EC50 (telomerase in HT3 cells): 5 µM

C=C(COCP(=O)(O)NCCCNCCCCN)Cn1cnc2c(=O)[nH]c(N)nc21 [compound 142873]
EC50 (telomerase in HT3 cells): 6.7 µM

CC(Cn1cnc2c(=O)[nH]c(N)nc21)OCP(=O)(O)NCCCNCCCCNCCCNP(=O)(O)COC(C)Cn1cnc2c(=O)[nH]c(N)nc21 (stereo not drawn) [compound 142942]
EC50 (telomerase in HT3 cells): 1.84 µM

CCCCCCCCCCNP(=O)(O)COC(C)Cn1cnc2c(=O)[nH]c(N)nc21 (stereo not drawn) [compound 142962]
EC50 (telomerase in HT3 cells): 1.44 µM
